Source: ChEMBL document CHEMBL3045741, “Antithyroid agents and QSAR studies: inhibition of lactoperoxidase-catalyzed iodination reaction by isochromene-1-thiones” (Med Chem Res, 2013)
The source made the active and inactive calls. The rule behind the calls is not given here.

Assays:
[1] = biological target: Lactoperoxidase (Bos taurus, UniProt P80025); assay: Inhibition of Bos taurus (bovine) milk lactoperoxidase-catalyzed iodination of L-tyrosine substrate by reverse phase HPLC analysis
[2] = biological target: Lactoperoxidase (Bos taurus) (UniProt P80025); assay: Non-competitive inhibition of Bos taurus (bovine) milk lactoperoxidase using fixed concentration of L-tyrosine and varying concentration of H2O2 as substrate by Lineweaver-burk plot analysis
[3] = biological target: Lactoperoxidase (Bos taurus) (UniProt P80025); assay: Non-competitive inhibition of Bos taurus (bovine) milk lactoperoxidase using varying concentration of L-tyrosine and fixed concentration of H2O2 as substrate by Lineweaver-burk plot analysis
[4] = biological target: Lactoperoxidase (Bos taurus) (UniProt P80025); assay: Irreversible inhibition of Bos taurus (bovine) milk lactoperoxidase using L-tyrosine as substrate at 30 uM in presence of 0.08 to 0.8 mM H2O2 by reverse phase HPLC analysis

Row | IC50 [1] [µM] | Compound | other results
1 | 21.9 | CC(C)(C)c1cc2ccccc2c(=S)o1 | 
2 | 26.5 | S=c1oc(-c2ccoc2)cc2ccccc12 | 
3 | > 200 | COc1ccc(-c2cc3ccccc3c(=O)o2)cc1 | 
4 | 6.2 | Cc1ccc(-c2cc3ccccc3c(=S)o2)cc1 | inhibition [2]: Active; inhibition [3]: Active
5 | 5.5 | S=c1oc(C2CCCCC2)cc2ccccc12 | 
6 | 13.9 | S=c1oc(-c2ccccc2)cc2ccccc12 | 
7 | > 200 | O=c1oc(-c2ccccc2)cc2ccccc12 | 

The next lines start with the molecule.

Row | Compound | IC50 [1] [µM] | other results
8 | S=c1oc(-c2cccc3ccccc23)cc2ccccc12 | 5.1 | inhibition [2]: Active; inhibition [3]: Active; inhibition [4]: Active
9 | CCCCc1cc2ccccc2c(=S)o1 | 17.4 | 
10 | Cn1cc[nH]c1=S [METHIMAZOLE] | 8.4 | 
11 | O=c1oc(-c2ccco2)cc2ccccc12 | > 200 | 
12 | O=c1oc(-c2ccc(Cl)cc2)cc2ccccc12 | 105 | 
13 | S=c1oc(-c2ccco2)cc2ccccc12 | 17.8 | 
14 | Cc1ccc(-c2cc3ccccc3c(=O)o2)cc1 | 93.8 | 
15 | COc1ccc(-c2cc3ccccc3c(=S)o2)cc1 | 8.4 | inhibition [4]: Active
16 | S=c1oc(-c2cccs2)cc2ccccc12 | 14.3 | 
17 | S=c1oc(-c2ccc(Cl)cc2)cc2ccccc12 | 26.4 | 
18 | O=c1oc(-c2cccc3ccccc23)cc2ccccc12 | 34.6 | 
